Assay results taken from US20100222396A1 (Novartis AG, priority 2009, published 2010).

Legend:
[1] = target: T1, human orexin 1 receptor (hOx1R) (Homo sapiens, UniProt O43613); assay: Calcium accumulation in cells (FLIPR), antagonism of orexin A, hOx1R; type: cell-based; conditions: for inhibition at 10 µM: measured at a concentration of 10 μM of compound (cells marked ^a); for Kd: cells expressing human orexin 1 receptor, IC50 vs orexin A converted by Cheng and Prusoff correction
T1 construct: expressed in transfected cells
T1 sequence (O43613 1-425): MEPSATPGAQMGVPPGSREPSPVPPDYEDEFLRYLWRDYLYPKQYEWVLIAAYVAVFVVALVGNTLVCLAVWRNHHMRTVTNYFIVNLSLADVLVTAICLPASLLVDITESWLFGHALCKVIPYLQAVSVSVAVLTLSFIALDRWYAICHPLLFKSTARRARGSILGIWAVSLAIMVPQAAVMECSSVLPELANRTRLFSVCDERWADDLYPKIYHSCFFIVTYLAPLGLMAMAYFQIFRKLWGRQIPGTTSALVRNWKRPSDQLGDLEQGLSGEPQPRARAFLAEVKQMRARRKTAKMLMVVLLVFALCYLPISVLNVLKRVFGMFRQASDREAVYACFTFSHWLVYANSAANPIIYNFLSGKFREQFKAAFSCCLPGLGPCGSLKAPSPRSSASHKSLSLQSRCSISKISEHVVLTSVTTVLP
Description: (§1) Cells expressing human orexin 1 or human orexin 2 receptors, were seeded at 8,000 cells/well in 384 well black-walled clear bottom, poly-D-lysine coated plates. After 24 h, the medium was removed and cells were washed once with phosphate buffered saline and serum-deprived overnight in assay buffer (130 mM NaCl, 5.4 mM KCl, 1.8 mM CaCl2, 0.8 mM MgSO4, 0.9 mM NaH2PO4, 25 mM glucose, 20 mM HEPES, pH 7.4) containing bovine serum albumin (1% w/v).
(§2) On the day of the experiment, the cells seeded in black plates were treated with assay buffer containing the Ca^2+ sensitive fluorescent dye Fluo-4-AM (2 μM), and probenecid (0.1 mM). After 1 h plates were washed twice with, and resuspended in, assay buffer containing probenecid (0.1 mM) using a multi plate washer. The plates were placed into a FLIPR II (Fluorometric Imaging Plate Reader, Molecular Devices, Sunnyvale, Calif., USA) and baseline fluorescence (fluorescence light units, FLU) was measured (5 measurements, 2 S each; laser excitation 488 nm at 0.6-1 W, CCD camera exposure 0.4 s) before addition of buffer alone (basal) or containing test compounds (either compound of formula I alone, agonist alone or agonist in the presence of various concentrations of compounds of formula I). Fluorescence measurements were then continued every 1 S for 120 S followed by every 4 S for 240 S.
(§3) The measurements were typically made in two sequences:
(§4) Compounds of formula I were tested usually in a concentration range from 10^−9 M to 10^−5 M.
(§5) In the second round, performed one hour later (to allow for equilibration), Orexin A was tested either in the absence (calibration curves, Orexin A agonist controls) or in the presence of compounds of formula I to determine antagonism.

[2] = target: T2, human orexin 2 receptor (hOx2R) (Homo sapiens, UniProt O43614); assay: Calcium accumulation in cells (FLIPR), antagonism of orexin A, hOx2R; type: cell-based; conditions: for inhibition at 10 µM: measured at a concentration of 10 μM of compound (cells marked ^a); for Kd: cells expressing human orexin 2 receptor, IC50 vs orexin A converted by Cheng and Prusoff correction
T2 construct: expressed in transfected cells
T2 sequence (O43614 1-444): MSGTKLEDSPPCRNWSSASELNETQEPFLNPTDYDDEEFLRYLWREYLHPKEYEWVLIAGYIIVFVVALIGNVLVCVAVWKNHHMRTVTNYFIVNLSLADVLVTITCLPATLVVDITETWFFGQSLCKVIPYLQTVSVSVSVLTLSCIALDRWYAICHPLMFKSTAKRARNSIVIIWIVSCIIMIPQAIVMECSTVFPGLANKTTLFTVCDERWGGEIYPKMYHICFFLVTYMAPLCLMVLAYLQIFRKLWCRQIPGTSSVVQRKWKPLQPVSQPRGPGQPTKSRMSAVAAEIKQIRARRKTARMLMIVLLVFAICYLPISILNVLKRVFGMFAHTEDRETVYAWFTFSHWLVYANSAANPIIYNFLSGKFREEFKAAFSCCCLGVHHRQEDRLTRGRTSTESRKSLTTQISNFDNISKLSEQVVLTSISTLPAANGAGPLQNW
Description: as §1, §2, §3, §4, §5

Structure (SMILES)	inhibition at 10 µM [1] [%]	inhibition at 10 µM [2] [%]	Kd [2] [µM]	Kd [1] [µM]
CN(C(=O)c1ccccc1)[C@H](CCNC(=O)c1ccccn1)C(C)(C)c1ccccc1 [Example 114, Pyridine-2-carboxylic acid [(R)-3-(benzoyl-methyl-amino)-4-methyl-4-phenyl-pentyl]-amide]	34	18	–	–
CC(=O)NCC[C@H](Cc1ccccc1)N(C)C(=O)c1ccc2c(c1)OCO2 [Example 109, Benzo[1,3]-dioxole-5-carboxylic acid ((S)-3-acetylamino-1-benzyl-propyl)-methyl-amide]	39	–	1.72	–
CN(C(=O)c1ccccc1)[C@H](CCNC(=O)c1cc2ccccc2cn1)Cc1ccccc1 [Example 89, Isoquinoline-3-carboxylic acid [(S)-3-(benzoyl-methyl-amino)-4-phenyl-butyl]-amide]	–	–	2.55	5.45
CN(C(=O)c1ccccc1)[C@H](CCNC(=O)c1ccc2cccnc2c1)Cc1ccccc1 [Example 88, Quinoline-7-carboxylic acid [(S)-3-(benzoyl-methyl-amino)-4-phenyl-butyl]-amide]	19	–	3.09	–
CN(C(=O)c1ccccc1)[C@@H](Cc1ccccc1)[C@H](O)CNC(=O)c1ccccn1 [Example 69, Pyridine-2-carboxylic acid [(2R,3S)-3-(benzoyl-methyl-amino)-2-hydroxy-4-phenyl-butyl]-amide]	–	–	1.66	3.52
CN(C(=O)c1ccccc1)[C@H](CCNC(=O)c1ccccn1)[C@@H](O)c1ccccc1 [Example 115, Pyridine-2-carboxylic acid [(3R,4S)-3-(benzoyl-methyl-amino)-4-hydroxy-4-phenyl-butyl]-amide]	13	33	–	–
CN(C(=O)c1ccccc1)[C@](C)(CCNC(=O)c1ccccn1)Cc1ccccc1 [Example 111, Pyridine-2-carboxylic acid [(S)-3-(benzoyl-methyl-amino)-3-methyl-4-phenyl-butyl]-amide]	25	–	0.562	–
CN(C(=O)c1ccccc1Br)[C@H](CCNC(=O)c1ccccn1)Cc1ccccc1 [Example 100, Pyridine-2-carboxylic acid {(8)-3-[(2-bromo-benzoyl)-methyl-amino]-4-phenyl-butyl}-amide]	–	–	0.131	1.08
CN(C(=O)c1ccccc1)[C@H](CCNC(=O)c1ccc2c(c1)CCO2)Cc1ccccc1 [Example 94, 2,3-Dihydro-benzofuran-5-carboxylic acid [(S)-3-(benzoyl-methyl-amino)-4-phenyl-butyl]-amide]	12	–	0.565	–
CN(C(=O)c1ccc2c(c1)OCO2)[C@@H](Cc1ccccc1)[C@H](O)CNC(=O)c1ccc2c(c1)OCO2 [Example 72, Benzo[1,3]dioxole-5-carboxylic acid {(2R,3S)-3-[(benzo[1,3]dioxole-5-carbonyl)-methyl-amino]-2-hydroxy-4-phenyl-butyl}-amide]	27	–	0.761	–
COc1ccc(C(=O)N(C)[C@H](CCNC(=O)c2cccn2C)Cc2ccccc2)cc1OC [Example 120, 1-Methyl-1H-pyrrole-2-carboxylic acid {(8)-3-[(3,4-dimethoxy-benzoyl)-methyl-amino]-4-phenyl-butyl}-amide]	–	–	0.004	0.182
CN(C(=O)c1ccc2ccn(C)c2c1)[C@H](CCNC(=O)c1ccccn1)Cc1ccccc1 [Example 85, 1-Methyl-1H-indole-6-carboxylic acid {(S)-1-benzyl-3-[(pyridine-2-carbonyl)-amino]-propyl}-methyl-amide]	–	–	0.394	0.237
CN(C(=O)c1ccc2c(c1)OC(C)(C)O2)[C@H](CCNC(=O)c1ccccn1)Cc1ccccc1 [Example 101, Pyridine-2-carboxylic acid {(S)-3-[(2,2-dimethyl-benzo[1,3]dioxole-5-carbonyl)-methyl-amino]-4-phenyl-butyl}-amide]	13	–	1.68	–
CN(C(=O)c1ccccc1)[C@H](CCNC(=O)c1ccc2ccccc2n1)Cc1ccccc1 [Example 87, Quinoline-2-carboxylic acid [(S)-3-(benzoyl-methyl-amino)-4-phenyl-butyl]-amide]	–	–	1.29	4.42
CN(C(=O)c1ccccc1)[C@H](CCNC(=O)c1cccnc1)Cc1ccccc1 [Example 86, N—[(S)-3-(Benzoyl-methyl-amino)-4-phenyl-butyl]-nicotinamide]	4	–	1.5	–
COc1ccc(C(=O)N(C)[C@H](CCNC(=O)c2nc3ccccc3n2C)Cc2ccccc2)cc1 [Example 90, 1-Methyl-1H-benzoimidazole-2-carboxylic acid {(S)-3-[(4-methoxy-benzoyl)-methyl-amino]-4-phenyl-butyl}-amide]	–	–	2.54	1.25
CN(C(=O)c1ccccc1)[C@H](CCNC(=O)c1ccccc1)Cc1ccccc1 [Example 15, N—[(S)-3-(Benzoyl-methyl-amino)-4-phenyl-butyl]-benzamide]	17	–	0.272	–
CN(C(=O)c1ccc2c(c1)OCO2)[C@H](CCNC(=O)c1nc2ccccc2o1)Cc1ccccc1 [Example 108, Benzooxazole-2-carboxylic acid {(S)-3-[(benzo[1,3]dioxole-5-carbonyl)-methyl-amino]-4-phenyl-butyl}-amide]	–	–	0.542	3.99
CN(C(=O)c1ccccc1)[C@H](CCNC(=O)c1cccn1C)Cc1ccccc1 [Example 91, 1-Methyl-1H-pyrrole-2-carboxylic acid [(S)-3-(benzoyl-methyl-amino)-4-phenyl-butyl]-amide]	16	–	0.375	–
CN(C(=O)c1ccccc1)[C@H](CCNC(=O)c1nccn1C)Cc1ccccc1 [Example 92, 1-Methyl-1H-imidazole-2-carboxylic acid [(S)-3-(benzoyl-methyl-amino)-4-phenyl-butyl]-amide]	2	–	0.921	–
CN(C(=O)c1ccccc1)[C@H](CCNC(=O)c1ccccn1)[C@@H](F)c1ccccc1 [Example 116, Pyridine-2-carboxylic acid [(3R,4S)-3-(benzoyl-methyl-amino)-4-fluoro-4-phenyl-butyl]-amide]	–	29	–	1.55
Cc1cccc(C)c1C(=O)N(C)[C@H](CCNC(=O)c1ccccn1)Cc1ccccc1 [Example 98, Pyridine-2-carboxylic acid {(8)-3-[(2,6-dimethyl-benzoyl)-methyl-amino]-4-phenyl-butyl}-amide]	28	24	–	–
